Residue numbers refer to the chain shown, from its start. Read-outs that look alike come from different tables or passages of the source.
What was measured:
[1] = molecular target: microsomal FAL-DH and GGAL-DH (Rattus norvegicus, UniProt P30839); test: NAD+-linked FAL-DH/GGAL-DH activity of solubilized hepatic microsomes; format: biochemical; details: solubilized hepatic microsomes, NAD+-linked oxidation
[2] = system: low-MW FAL-R and GGAL-R from liver; test: FAL-R/GGAL-R activity of low-MW reductase from rat liver; format: biochemical; details: liver low-MW reductase
[3] = molecular target: T1, low-MW FAL-R and GGAL-R from stomach, lung and colon (Rattus norvegicus, UniProt D3ZF77); test: FAL-R/GGAL-R activity of low-MW reductases from rat stomach, lung and colon; format: biochemical; details: extra-hepatic enzymes (stomach, lung, colon)
T1 sequence (D3ZF77 1-324): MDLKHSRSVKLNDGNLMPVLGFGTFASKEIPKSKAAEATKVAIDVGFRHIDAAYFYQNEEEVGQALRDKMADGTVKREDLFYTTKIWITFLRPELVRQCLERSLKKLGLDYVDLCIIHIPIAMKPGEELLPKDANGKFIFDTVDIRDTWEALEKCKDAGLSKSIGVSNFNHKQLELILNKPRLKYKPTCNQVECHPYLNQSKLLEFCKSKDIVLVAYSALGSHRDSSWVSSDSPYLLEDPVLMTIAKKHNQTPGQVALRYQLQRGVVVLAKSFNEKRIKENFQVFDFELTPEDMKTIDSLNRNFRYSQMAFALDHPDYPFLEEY

AKR 1A1 = molecular target: T2, AKR 1A1 (Homo sapiens, UniProt P14550); test: Kinetic constants for FAL and GGAL reduction, AKR1A1; format: biochemical
T2 sequence (P14550 1-325): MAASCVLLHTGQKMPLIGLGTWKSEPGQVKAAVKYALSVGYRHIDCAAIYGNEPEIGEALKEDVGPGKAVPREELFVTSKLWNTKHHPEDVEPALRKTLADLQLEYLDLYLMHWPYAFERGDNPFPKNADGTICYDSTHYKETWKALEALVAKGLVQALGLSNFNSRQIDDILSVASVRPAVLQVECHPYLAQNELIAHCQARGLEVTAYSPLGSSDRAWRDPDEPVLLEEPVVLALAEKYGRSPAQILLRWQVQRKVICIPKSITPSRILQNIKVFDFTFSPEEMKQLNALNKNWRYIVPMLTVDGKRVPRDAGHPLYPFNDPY

AKR 1C1 = molecular target: T3, AKR 1C1 (Homo sapiens, UniProt Q04828); test: Kinetic constants for FAL and GGAL reduction, AKR1C1; format: biochemical
T3 sequence (Q04828 1-323): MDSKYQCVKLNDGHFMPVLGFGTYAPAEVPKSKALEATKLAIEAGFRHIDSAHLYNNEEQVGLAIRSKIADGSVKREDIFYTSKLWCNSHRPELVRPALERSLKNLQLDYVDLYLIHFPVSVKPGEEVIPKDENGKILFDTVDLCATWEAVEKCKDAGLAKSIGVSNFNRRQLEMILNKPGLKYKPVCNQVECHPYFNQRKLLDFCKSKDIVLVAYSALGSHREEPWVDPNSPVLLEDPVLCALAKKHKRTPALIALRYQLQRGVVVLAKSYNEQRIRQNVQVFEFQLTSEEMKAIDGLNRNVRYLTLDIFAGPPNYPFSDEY

AKR 1C2 = molecular target: T4, AKR 1C2 (Homo sapiens, UniProt P52895); test: Kinetic constants for FAL and GGAL reduction, AKR1C2; format: biochemical
T4 sequence (P52895 1-323): T3 sequence (Q04828 1-323) with T38V, R47H, L54V, C87S, V151M, R170H, Q172L

AKR 1C3 = molecular target: T5, AKR 1C3 (Homo sapiens, UniProt P42330); test: Kinetic constants for FAL and GGAL reduction, AKR1C3; format: biochemical; details: for Km / kcat: 0.1 M potassium phosphate pH 7.4, 0.1 mM NADPH
T5 sequence (P42330 1-323): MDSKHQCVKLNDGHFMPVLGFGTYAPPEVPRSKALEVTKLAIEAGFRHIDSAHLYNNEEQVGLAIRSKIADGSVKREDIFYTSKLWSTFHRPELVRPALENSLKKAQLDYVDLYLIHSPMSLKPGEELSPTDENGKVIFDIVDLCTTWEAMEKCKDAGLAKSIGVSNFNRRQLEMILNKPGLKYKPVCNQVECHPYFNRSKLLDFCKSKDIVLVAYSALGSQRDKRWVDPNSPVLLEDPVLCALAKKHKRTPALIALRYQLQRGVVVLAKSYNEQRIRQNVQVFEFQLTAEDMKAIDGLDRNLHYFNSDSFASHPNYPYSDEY

AKR 1C4 = molecular target: T6, AKR 1C4 (Homo sapiens, UniProt P17516); test: Kinetic constants for FAL and GGAL reduction, AKR1C4; format: biochemical; details: 0.1 M potassium phosphate pH 7.4, 0.1 mM NADPH
T6 sequence (P17516 1-323): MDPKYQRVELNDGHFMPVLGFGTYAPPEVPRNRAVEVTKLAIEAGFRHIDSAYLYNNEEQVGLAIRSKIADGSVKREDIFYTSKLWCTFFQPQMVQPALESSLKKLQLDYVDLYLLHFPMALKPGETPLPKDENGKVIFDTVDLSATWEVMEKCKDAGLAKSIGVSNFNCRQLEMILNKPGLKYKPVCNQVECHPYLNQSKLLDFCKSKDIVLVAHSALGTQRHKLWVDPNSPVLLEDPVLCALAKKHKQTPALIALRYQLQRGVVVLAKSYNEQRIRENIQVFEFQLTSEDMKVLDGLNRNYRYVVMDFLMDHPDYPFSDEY

[4] = molecular target: human carbonyl reductase 1 (Homo sapiens, UniProt P16152); test: Reduction of FAL and GGAL by carbonyl reductase 1; format: biochemical
Chain of human carbonyl reductase 1 (P16152 whole entry): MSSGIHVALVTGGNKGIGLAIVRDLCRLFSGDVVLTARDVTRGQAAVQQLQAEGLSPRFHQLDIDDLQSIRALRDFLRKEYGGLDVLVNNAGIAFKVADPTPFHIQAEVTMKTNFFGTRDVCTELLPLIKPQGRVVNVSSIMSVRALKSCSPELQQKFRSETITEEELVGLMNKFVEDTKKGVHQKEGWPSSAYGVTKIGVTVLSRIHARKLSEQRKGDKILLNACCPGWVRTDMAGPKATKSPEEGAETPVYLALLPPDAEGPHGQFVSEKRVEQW

[5] = molecular target: dicarbonyl-xylulose reductase (Homo sapiens, UniProt Q7Z4W1); test: Reduction of FAL and GGAL by dicarbonyl-xylulose reductase; format: biochemical
Chain of dicarbonyl-xylulose reductase (Q7Z4W1 whole entry): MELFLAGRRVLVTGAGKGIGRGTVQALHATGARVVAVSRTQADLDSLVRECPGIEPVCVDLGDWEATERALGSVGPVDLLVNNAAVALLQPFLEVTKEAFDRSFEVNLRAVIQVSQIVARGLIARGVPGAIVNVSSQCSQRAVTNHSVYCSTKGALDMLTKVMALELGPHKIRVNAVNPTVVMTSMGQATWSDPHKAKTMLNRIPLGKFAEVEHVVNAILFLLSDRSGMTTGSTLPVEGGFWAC

[6] = molecular target: dehydrogenase/reductase (SDR family) member 4 (Homo sapiens, UniProt Q9BTZ2); test: Reduction of FAL and GGAL by dehydrogenase/reductase; format: biochemical
Chain of dehydrogenase/reductase (SDR family) member 4 (Q9BTZ2 whole entry): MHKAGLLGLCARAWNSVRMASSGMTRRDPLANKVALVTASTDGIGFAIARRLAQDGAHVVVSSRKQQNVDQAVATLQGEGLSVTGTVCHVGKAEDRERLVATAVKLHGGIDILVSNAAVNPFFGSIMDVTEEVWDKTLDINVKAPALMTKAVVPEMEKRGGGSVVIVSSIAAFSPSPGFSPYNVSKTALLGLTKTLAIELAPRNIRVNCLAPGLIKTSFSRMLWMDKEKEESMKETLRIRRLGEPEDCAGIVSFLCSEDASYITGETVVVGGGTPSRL

AKR1C15 [7] = molecular target: T7, AKR1C15 (Rattus norvegicus, UniProt D3ZF77); details: NADPH-linked reduction; reported values; cited from earlier work
human AKR 1B1 = details: cited from earlier work
human AKR 1B10 = details: 0.1 M potassium phosphate pH 7.4, 0.1 mM NADPH; cited from earlier work
[8] = molecular target: T8, purified hepatic FAL-R (AKR1C9) (Rattus norvegicus, UniProt P23457); test: Reductase activity of hepatic low-MW FAL-R purified to homogeneity; details: purified liver enzyme
T8 sequence (P23457 1-322): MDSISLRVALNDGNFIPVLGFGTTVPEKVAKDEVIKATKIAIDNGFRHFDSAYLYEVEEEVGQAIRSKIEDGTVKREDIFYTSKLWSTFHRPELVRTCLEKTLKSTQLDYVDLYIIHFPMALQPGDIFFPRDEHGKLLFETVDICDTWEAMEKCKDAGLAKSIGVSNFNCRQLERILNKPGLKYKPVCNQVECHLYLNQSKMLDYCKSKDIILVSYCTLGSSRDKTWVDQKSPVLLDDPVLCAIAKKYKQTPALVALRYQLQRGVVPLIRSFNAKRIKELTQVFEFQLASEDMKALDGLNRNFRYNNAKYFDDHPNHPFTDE

AKR1C15 [9] = molecular target: T7, AKR1C15; test: Reduction of isoprenyl aldehydes by AKR1C15; format: biochemical; details: NADPH-linked reduction
[10] = 0.1 M potassium phosphate pH 7.4, 0.1 mM NADPH
[11] = calculated from the specific activity with 10 μM GGAL

Chain of microsomal FAL-DH and GGAL-DH (P30839 whole entry): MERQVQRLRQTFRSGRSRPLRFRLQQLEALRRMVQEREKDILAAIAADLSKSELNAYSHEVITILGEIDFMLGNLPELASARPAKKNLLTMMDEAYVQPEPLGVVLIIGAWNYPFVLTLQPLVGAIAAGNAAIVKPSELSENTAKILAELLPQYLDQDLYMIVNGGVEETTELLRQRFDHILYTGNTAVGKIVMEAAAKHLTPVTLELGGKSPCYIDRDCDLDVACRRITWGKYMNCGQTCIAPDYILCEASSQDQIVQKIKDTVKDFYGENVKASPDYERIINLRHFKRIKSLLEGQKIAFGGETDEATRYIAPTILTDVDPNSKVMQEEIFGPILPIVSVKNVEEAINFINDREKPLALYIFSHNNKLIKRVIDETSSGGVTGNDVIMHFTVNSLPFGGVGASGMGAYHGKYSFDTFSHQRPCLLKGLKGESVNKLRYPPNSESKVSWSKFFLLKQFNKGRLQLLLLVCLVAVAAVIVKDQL

Km [1] | Vmax [1] | Km [2] | Km [3] | Km (AKR 1C3) | kcat (AKR 1C3) | Km (AKR 1C4) | kcat (AKR 1C4) | reduction by the enzyme [4] | reduction by the enzyme [5] | reduction by the enzyme [6] | Km [8] | SMILES | Km (human AKR 1B10) | kcat (human AKR 1B10) | other results
2000 nM | 12 mU/mg | 26 µM | 6 to 8 µM | 2600 nM | 2.7 min⁻¹ | 4700 nM | 1.1 min⁻¹ | hardly reduced | hardly reduced | hardly reduced | 30 µM | CC(C)=CCCC(C)=CCCC(C)=CC=O [FAL, farnesal] | 2500 nM | 23 min⁻¹ | Km (AKR 1A1; [10]): 60 µM; kcat (AKR 1A1; [10]): 13 min⁻¹; Km (AKR 1C1; [10]): 3.1 µM; kcat (AKR 1C1; [10]): 1.7 min⁻¹; Km (AKR 1C2; [10]): 1100 nM; kcat (AKR 1C2; [10]): 1.8 min⁻¹; Km (AKR1C15 [7]): 5.6 µM; Km (human AKR 1B1; [10]): 37 µM; kcat (human AKR 1B1; [10]): 27 min⁻¹
700 nM | 4.2 mU/mg | 2.1 µM | 0.2 to 0.5 µM | 300 nM | 3.6 min⁻¹ | 1100 nM | 0.88 min⁻¹ | hardly reduced | hardly reduced | hardly reduced | 3.9 µM | CC(C)=CCC/C(C)=C/CC/C(C)=C/CC/C(C)=C/C=O [GGAL, geranylgeranial] | 900 nM | 7.5 min⁻¹ | Km (AKR1C15 [9]): 200 nM; kcat (value in parenthesis) (AKR 1A1; [11]): (0.8) ^b min^−1; kcat (value in parenthesis) (AKR 1C1; [11]): (0.3) ^b min^−1; kcat (value in parenthesis) (AKR 1C2; [11]): (0.4) ^b min^−1; kcat/Km value relative to that for prostaglandin D2 (AKR 1C3; higher than for prostaglandin D2, best known endogenous substrate): 12 fold; kcat (value in parenthesis) (human AKR 1B1; [11]): (0.3) ^b min^−1
